From the supplement of paper PMC13207355

Key:
Details in all cases: exposure time: 72 h
E13 [1] = patient-derived glioblastoma stem cells of classical subtype; assay: phenotypic distance (Euclidean, principal components) from DMSO controls (arbitrary units); higher = stronger morphological change
FT3469 [2] = normal neural stem cell line; assay: as above
E31 [3] = patient-derived glioblastoma stem cells of proneural subtype; assay: as above
E34 [4] = patient-derived glioblastoma stem cells of proneural subtype; assay: as above
E28 [5] = patient-derived glioblastoma stem cells of classical subtype; assay: as above
E57 [6] = patient-derived glioblastoma stem cells of mesenchymal subtype; assay: as above
E21 [7] = patient-derived glioblastoma stem cells of mesenchymal subtype; assay: as above
E13 [8] = assay: surviving fraction (nuclei count normalised to DMSO); higher = more cells surviving (less toxic)
FT3469 [9] = assay: as above
E31 [10] = assay: as above
E34 [11] = assay: as above
E28 [12] = assay: as above
E57 [13] = assay: as above
E21 [14] = assay: as above
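Wherever phenotypic distance (Euclidean, principal components) from DMSO controls is given: cell Painting imaging in 384-well plates, CellProfiler features reduced to at least 20 principal components, Euclidean distance versus same-plate DMSO vehicle wells (0.1% v/v), median over six images per well.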
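Wherever surviving fraction (nuclei count normalised to DMSO) is given: nuclei counted by high-content imaging of Hoechst-stained cells in laminin-coated 384-well plates, relative to 0.1% DMSO vehicle wells, with staurosporine as cell-death control.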

Clc1ccc(COC(Cn2ccnc2)c2ccc(Cl)cc2Cl)cc1 (stereo not drawn) [Econazole nitrate]
Details | phenotypic distance | surviving fraction
E13 [1], 4.1 nM | 0.86 | –
E13 [1], 12.3 nM | 0.584 | –
E13 [1], 37 nM | 0.567 | –
E13 [1], 111.1 nM | 1.07 | –
E13 [1], 333.3 nM | 1.37 | –
E13 [1], 1000 nM | 0.962 | –
E13 [1], 3000 nM | 1.16 | –
E13 [8], 4.1 nM | – | 0.964
E13 [8], 12.3 nM | – | 1.05
E13 [8], 37 nM | – | 0.999
E13 [8], 111.1 nM | – | 1.11
E13 [8], 333.3 nM | – | 1.08
E13 [8], 1000 nM | – | 0.997
E13 [8], 3000 nM | – | 0.967
E21 [7], 4.1 nM | 0.651 | –
E21 [7], 12.3 nM | 0.516 | –
E21 [7], 37 nM | 0.785 | –
E21 [7], 111.1 nM | 0.844 | –
E21 [7], 333.3 nM | 0.917 | –
E21 [7], 1000 nM | 0.797 | –
E21 [7], 3000 nM | 1.31 | –
E21 [14], 4.1 nM | – | 1.11
E21 [14], 12.3 nM | – | 0.967
E21 [14], 37 nM | – | 0.99
E21 [14], 111.1 nM | – | 1.03
E21 [14], 333.3 nM | – | 1.01
E21 [14], 1000 nM | – | 1.11
E21 [14], 3000 nM | – | 1.18
E28 [5], 4.1 nM | 0.359 | –
E28 [5], 12.3 nM | 0.539 | –
E28 [5], 37 nM | 0.504 | –
E28 [5], 111.1 nM | 0.446 | –
E28 [5], 333.3 nM | 0.803 | –
E28 [5], 1000 nM | 0.72 | –
E28 [5], 3000 nM | 0.946 | –
E28 [12], 4.1 nM | – | 1.06
E28 [12], 12.3 nM | – | 1.03
E28 [12], 37 nM | – | 1.06
E28 [12], 111.1 nM | – | 0.943
E28 [12], 333.3 nM | – | 1.12
E28 [12], 1000 nM | – | 0.941
E28 [12], 3000 nM | – | 0.965
E31 [3], 4.1 nM | 0.819 | –
E31 [3], 12.3 nM | 0.415 | –
E31 [3], 37 nM | 0.765 | –
E31 [3], 111.1 nM | 0.767 | –
E31 [3], 333.3 nM | 0.871 | –
E31 [3], 1000 nM | 1.4 | –
E31 [3], 3000 nM | 1.39 | –
E31 [10], 4.1 nM | – | 1.03
E31 [10], 12.3 nM | – | 0.985
E31 [10], 37 nM | – | 0.969
E31 [10], 111.1 nM | – | 0.924
E31 [10], 333.3 nM | – | 1.08
E31 [10], 1000 nM | – | 1.17
E31 [10], 3000 nM | – | 1.14
E34 [4], 4.1 nM | 0.901 | –
E34 [4], 12.3 nM | 0.505 | –
E34 [4], 37 nM | 0.479 | –
E34 [4], 111.1 nM | 1.39 | –
E34 [4], 333.3 nM | 0.912 | –
E34 [4], 1000 nM | 1.29 | –
E34 [4], 3000 nM | 1.17 | –
E34 [11], 4.1 nM | – | 0.983
E34 [11], 12.3 nM | – | 1.08
E34 [11], 37 nM | – | 1.01
E34 [11], 111.1 nM | – | 1.17
E34 [11], 333.3 nM | – | 1.03
E34 [11], 1000 nM | – | 1.11
E34 [11], 3000 nM | – | 0.957
E57 [6], 4.1 nM | 0.324 | –
E57 [6], 12.3 nM | 0.67 | –
E57 [6], 37 nM | 0.501 | –
E57 [6], 111.1 nM | 0.756 | –
E57 [6], 333.3 nM | 0.858 | –
E57 [6], 1000 nM | 1.1 | –
E57 [6], 3000 nM | 1.45 | –
E57 [13], 4.1 nM | – | 1.02
E57 [13], 12.3 nM | – | 1.04
E57 [13], 37 nM | – | 1.07
E57 [13], 111.1 nM | – | 1.06
E57 [13], 333.3 nM | – | 1.09
E57 [13], 1000 nM | – | 1.03
E57 [13], 3000 nM | – | 1.05
FT3469 [2], 4.1 nM | 0.434 | –
FT3469 [2], 12.3 nM | 0.211 | –
FT3469 [2], 37 nM | 0.645 | –
FT3469 [2], 111.1 nM | 0.741 | –
FT3469 [2], 333.3 nM | 0.628 | –
FT3469 [2], 1000 nM | 0.747 | –
FT3469 [2], 3000 nM | 0.632 | –
FT3469 [9], 4.1 nM | – | 0.824
FT3469 [9], 12.3 nM | – | 0.949
FT3469 [9], 37 nM | – | 1.04
FT3469 [9], 111.1 nM | – | 1.03
FT3469 [9], 333.3 nM | – | 0.854
FT3469 [9], 1000 nM | – | 0.902
FT3469 [9], 3000 nM | – | 0.864
